Measurements: US20230391714A1, “INHIBITORS OF THE INTERACTION BETWEEN TRIP8B AND HCN CHANNELS AND USES THEREOF FOR TREATING NEUROLOGICAL DISEASES AND DISORDERS” (Northwestern University, priority 2022, published 2023)

The compounds below were run against TRIP8b-HCN1c40 (Homo sapiens (Human), UniProt Q8IYB4) (assay: TRIP8b-HCN1c40 AlphaScreen assay). Details: activity ranges; read-out: TRIP8b-HCN1c40 Alphascreen IC50 activity.
Assay type: binding
Method: AlphaScreen Assay. 20 nM ofGST-tagged HCNlc40 protein (corresponding to the C terminal 40 amino acids of HCN1) was incubated with 200 nM of His-tagged TRIP8b(241-602) and varying concentrations of the test compound as described in our prior report (Han et al., 2015). After a 3 h incubation, anti-GST AlphaScreen acceptor beads were added for 1.5 h followed by AlphaScreen nickel chelate donor beads for 1.5 h. AlphaScreen signal was quantified using a PerkinElmer (Waltham, MA) EnSpire multimode plate reader.

TRIP8b-HCN1c40, sequence (Q8IYB4 265-626): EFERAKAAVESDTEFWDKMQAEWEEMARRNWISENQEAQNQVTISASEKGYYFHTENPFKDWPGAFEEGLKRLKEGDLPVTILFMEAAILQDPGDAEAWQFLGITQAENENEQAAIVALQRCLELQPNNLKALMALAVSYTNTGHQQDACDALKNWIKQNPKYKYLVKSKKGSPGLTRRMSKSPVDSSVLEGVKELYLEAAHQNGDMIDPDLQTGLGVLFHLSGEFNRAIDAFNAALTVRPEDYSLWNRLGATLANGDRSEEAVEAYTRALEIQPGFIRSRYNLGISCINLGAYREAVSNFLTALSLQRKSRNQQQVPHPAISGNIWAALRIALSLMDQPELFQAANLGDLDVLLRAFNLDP

| IC50 [nM] | Compound |
| --- | --- |
| 2000 to 5000 | CC(Oc1ccc(-c2ccc([N+](=O)[O-])cc2)cc1CN1CCN(C)CC1)C(=O)NCc1ccc(Cl)cc1 (stereo not shown) [NUCC-0202034] |
| 2000 to 5000 | Cc1cc(C)c(-c2ccc(OCC(=O)NCc3ccc(Cl)cc3)c(CN3CCNCC3)c2)c(C)c1 [NUCC-0201629] |
| 5000 to 10000 | Cc1ccc(-c2ccc(OCC(=O)NCc3ccc(Cl)cc3)c(CN3CCNCC3)c2)cc1 [NUCC-0201614] |
| 1000 to 2000 | Cc1ccc(-c2ccc(OC(C)C(=O)N[C@H](C)c3ccc(C)cc3)c(CN3CCN(C)CC3)c2)cc1 (stereo partly shown) [NUCC-0202048] |
| 10000 to 20000 | Cc1cccc(-c2ccc(OCC(=O)Nc3cccc(S(C)(=O)=O)c3)c(CN3CC[C@H](N)C3)c2)c1 [NUCC-0201622] |
| 2000 to 5000 | CN1CCN(Cc2cc(-c3cccc(S(C)(=O)=O)c3)ccc2OCC(=O)Nc2ccc(Cl)c(Cl)c2)CC1 [NUCC-0202022] |
| < 1000 | CC(Oc1ccc(-c2ccc(Cl)cc2Cl)cc1CN1CCN(C)CC1)C(=O)NCc1ccc(Cl)cc1 (stereo not shown) [NUCC-0202026] |
| 5000 to 10000 | Cc1ccc(-c2ccc(OCC(=O)NCc3ccc(Cl)cc3)c(CN3CCC(N(C)C)CC3)c2)cc1 [NUCC-0201607] |
| 1000 to 2000 | Cc1ccc(NC(=O)COc2ccc(-c3ccc(Cl)c(Cl)c3)cc2CN2CCN(C)CC2)cc1 [NUCC-0202018] |
| 1000 to 2000 | CN1CCN(Cc2ccc(-c3ccc(F)c(C(F)(F)F)c3)cc2OCC(=O)NCc2ccc(Cl)cc2)CC1 [NUCC-0202013] |
| < 1000 | CN1CCN(Cc2cc(-c3cc(Cl)cc(Cl)c3)ccc2OCC(=O)Nc2ccc(Cl)c(Cl)c2)CC1 [NUCC-0202003] |
| 2000 to 5000 | Cc1ccc(-c2ccc(OCC(=O)NCc3cccc(Cl)c3)c(CN3CCC(N(C)C)CC3)c2)cc1 [NUCC-0201610] |
| 1000 to 2000 | CN1CCN(Cc2cc(-c3ccc(Cl)c(Cl)c3)ccc2OCC(=O)NC2Cc3ccccc3C2)CC1 [NUCC-0201989] |
| 1000 to 2000 | CN1CCN(Cc2cc(-c3ccc(Cl)cc3)ccc2OCCNS(=O)(=O)c2ccc(Cl)cc2)CC1 [NUCC-0201974] |
| < 1000 | Cc1ccc([C@@H](C)NC(=O)C(C)Oc2ccc(-c3ccc(Cl)c(Cl)c3)cc2CN2CCN(C)CC2)cc1 (stereo partly shown) [NUCC-0202047] |
| 10000 to 20000 | CC(Oc1ccc(-c2ccc(O)cc2)cc1CN1CCN(C)CC1)C(=O)NCc1ccc(Cl)cc1 (stereo not shown) [NUCC-0202030] |
| 2000 to 5000 | CN1CCN(Cc2cc(-c3ccc(Cl)c(Cl)c3)ccc2OCC(=O)NCc2ccc(C(F)(F)F)cc2)CC1 [NUCC-0201982] |
| 1000 to 2000 | CN1CCN(Cc2cc(-c3ccc(Cl)c(Cl)c3)ccc2OCC(=O)NCc2cccc(Cl)c2)CC1 [NUCC-0201986] |
| < 1000 | Cc1ccc([C@@H](C)NC(=O)C(C)Oc2ccc(-c3ccc(Cl)cc3)cc2CN2CCN(C)CC2)cc1 (stereo partly shown) [NUCC-0202046] |
| 1000 to 2000 | C=Cc1ccccc1NC(=O)COc1ccc(-c2ccc(Cl)c(Cl)c2)cc1CN1CCN(C)CC1 [NUCC-0202015] |
| 2000 to 5000 | CN1CCN(Cc2cc(-c3ccc(Cl)cc3)ccc2OCC(=O)NCc2ccc(Cl)cc2)CC1 [NUCC-0201712] |

Same assay, conditions: read-out: TRIP8b-HCN1c40 Alphascreen IC50

| IC50 [nM] | Compound |
| --- | --- |
| 2700 | CC(Oc1ccc(-c2ccc([N+](=O)[O-])cc2)cc1CN1CCN(C)CC1)C(=O)NCc1ccc(Cl)cc1 (stereo not shown) [NUCC-0202034] |
| 3100 | Cc1cc(C)c(-c2ccc(OCC(=O)NCc3ccc(Cl)cc3)c(CN3CCNCC3)c2)c(C)c1 [NUCC-0201629] |
| 7200 | Cc1ccc(-c2ccc(OCC(=O)NCc3ccc(Cl)cc3)c(CN3CCNCC3)c2)cc1 [NUCC-0201614] |
| 110000 | CN1CCN(Cc2cc(-c3ccc(F)cc3)ccc2OCC(=O)NC2CC2)CC1 [NUCC-0201101] |
| 1900 | Cc1ccc(-c2ccc(OC(C)C(=O)N[C@H](C)c3ccc(C)cc3)c(CN3CCN(C)CC3)c2)cc1 (stereo partly shown) [NUCC-0202048] |
| > 40000 | Cc1ccc(-c2ccc(OCC(=O)NCc3ccc(S(N)(=O)=O)cc3)c(CN3CCCN(C)CC3)c2)cc1 [NUCC-0201597] |
| 91000 | CN1CCN(Cc2cc(-c3ccc(F)cc3)ccc2OCC(=O)N(C)Cc2ccccc2)CC1 [NUCC-0201102] |
| 19000 | Cc1cccc(-c2ccc(OCC(=O)Nc3cccc(S(C)(=O)=O)c3)c(CN3CC[C@H](N)C3)c2)c1 [NUCC-0201622] |
| 2700 | CN1CCN(Cc2cc(-c3cccc(S(C)(=O)=O)c3)ccc2OCC(=O)Nc2ccc(Cl)c(Cl)c2)CC1 [NUCC-0202022] |
| 910 | CC(Oc1ccc(-c2ccc(Cl)cc2Cl)cc1CN1CCN(C)CC1)C(=O)NCc1ccc(Cl)cc1 (stereo not shown) [NUCC-0202026] |
| 5500 | Cc1ccc(-c2ccc(OCC(=O)NCc3ccc(Cl)cc3)c(CN3CCC(N(C)C)CC3)c2)cc1 [NUCC-0201607] |
| 1000 | Cc1ccc(NC(=O)COc2ccc(-c3ccc(Cl)c(Cl)c3)cc2CN2CCN(C)CC2)cc1 [NUCC-0202018] |
| 1400 | CN1CCN(Cc2ccc(-c3ccc(F)c(C(F)(F)F)c3)cc2OCC(=O)NCc2ccc(Cl)cc2)CC1 [NUCC-0202013] |
| < 740 | CN1CCN(Cc2cc(-c3cc(Cl)cc(Cl)c3)ccc2OCC(=O)Nc2ccc(Cl)c(Cl)c2)CC1 [NUCC-0202003] |
| 5000 | Cc1ccc(-c2ccc(OCC(=O)NCc3cccc(Cl)c3)c(CN3CCC(N(C)C)CC3)c2)cc1 [NUCC-0201610] |
| 1300 | CN1CCN(Cc2cc(-c3ccc(Cl)c(Cl)c3)ccc2OCC(=O)NC2Cc3ccccc3C2)CC1 [NUCC-0201989] |
| 1800 | CN1CCN(Cc2cc(-c3ccc(Cl)cc3)ccc2OCCNS(=O)(=O)c2ccc(Cl)cc2)CC1 [NUCC-0201974] |
| < 740 | Cc1ccc([C@@H](C)NC(=O)C(C)Oc2ccc(-c3ccc(Cl)c(Cl)c3)cc2CN2CCN(C)CC2)cc1 (stereo partly shown) [NUCC-0202047] |
| 14000 | CC(Oc1ccc(-c2ccc(O)cc2)cc1CN1CCN(C)CC1)C(=O)NCc1ccc(Cl)cc1 (stereo not shown) [NUCC-0202030] |
| 160000 | CN1CCN(Cc2cc(OC(F)(F)F)ccc2OCC(=O)NCc2ccc(Cl)cc2)CC1 [NUCC-0201228] |
| 2500 | CN1CCN(Cc2cc(-c3ccc(Cl)c(Cl)c3)ccc2OCC(=O)NCc2ccc(C(F)(F)F)cc2)CC1 [NUCC-0201982] |
| 1100 | CN1CCN(Cc2cc(-c3ccc(Cl)c(Cl)c3)ccc2OCC(=O)NCc2cccc(Cl)c2)CC1 [NUCC-0201986] |
| 840 | Cc1ccc([C@@H](C)NC(=O)C(C)Oc2ccc(-c3ccc(Cl)cc3)cc2CN2CCN(C)CC2)cc1 (stereo partly shown) [NUCC-0202046] |
| 1100 | C=Cc1ccccc1NC(=O)COc1ccc(-c2ccc(Cl)c(Cl)c2)cc1CN1CCN(C)CC1 [NUCC-0202015] |
| 3000 | CN1CCN(Cc2cc(-c3ccc(Cl)cc3)ccc2OCC(=O)NCc2ccc(Cl)cc2)CC1 [NUCC-0201712] |
